Structures can show the parent of a compound that is named as a salt.
Key:
delF508-CFTR = biological target: T1, delF508-CFTR (Homo sapiens, UniProt P13569, DEL508-508); assay: Measurement of delF508-CFTR functional activity in primary human bronchial epithelial cells (HBECs) using Multi-Transepithelial Clamp Circuit (MTECC-24) assay; type: cell-based; conditions: primary CF HBECs; for MTECC24 CFHBEC- Amax %: test compound added 24h before assay plus potentiator, relative to reference combination (2 μM corrector + 0.5 μM potentiator); for EC50: test compound added 24h before assay, in the presence of potentiator, mean of at least two replicates, read-out: MTECC24 CFHBEC- EC50
T1 construct: functional activity of the CFTR channel (Chloride ion transport) in patient derived primary human bronchial epithelial cells; host or cells: patient-derived primary human bronchial epithelial cells (delF508-CFTR)
Summary of the method: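 Compound tested as 10-point, 1-in-3 concentration response (0.1% or 0.2% DMSO), 24 h basolateral pre-incubation, then re-added to both sides. MTECC-24 measured Ieq in ALI-differentiated primary delF508 bronchial cells after amiloride, forskolin activation, potentiator and INH-172 block; data normalized to DMSO baseline, EC50 fitted.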

[1] = biological target: T2, horseradish peroxidase (HRP) tagged delF508-CFTR (Homo sapiens, UniProt P13569, DEL508-508); assay: Measurement of delF508-CFTR-HRP surface expression in CFBE41o- cells; type: cell-based; conditions: delF508-CFTR-HRP surface expression, CFBE41o- cells; for EC50: read-out: DelF508-CFTR-HRP EC50; for Emax: read-out: DelF508-CFTR-HRP Amax %;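 for DelF508-CFTR-HRP Amax %: percent efficacy relative to reference corrector lumacaftor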
T2 construct: expressed in transfected cells
Summary of the method: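 Surface-trafficked delF508-CFTR detected via extracellular HRP tag, read as luminescence from a membrane-impermeant substrate in CFBE41o- cells. Cells pre-induced 48h with 500 ng/mL doxycycline, then exposed 24h at 37° C to a 10-point, 3-fold dilution series from 10 μM (DMSO ≤0.5%). Triplicate dose-responses fitted logistically for EC50 after per-plate normalization; fold change versus reference compound.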

T2 sequence (P13569 with tags, fused parts or gaps DEL508-508): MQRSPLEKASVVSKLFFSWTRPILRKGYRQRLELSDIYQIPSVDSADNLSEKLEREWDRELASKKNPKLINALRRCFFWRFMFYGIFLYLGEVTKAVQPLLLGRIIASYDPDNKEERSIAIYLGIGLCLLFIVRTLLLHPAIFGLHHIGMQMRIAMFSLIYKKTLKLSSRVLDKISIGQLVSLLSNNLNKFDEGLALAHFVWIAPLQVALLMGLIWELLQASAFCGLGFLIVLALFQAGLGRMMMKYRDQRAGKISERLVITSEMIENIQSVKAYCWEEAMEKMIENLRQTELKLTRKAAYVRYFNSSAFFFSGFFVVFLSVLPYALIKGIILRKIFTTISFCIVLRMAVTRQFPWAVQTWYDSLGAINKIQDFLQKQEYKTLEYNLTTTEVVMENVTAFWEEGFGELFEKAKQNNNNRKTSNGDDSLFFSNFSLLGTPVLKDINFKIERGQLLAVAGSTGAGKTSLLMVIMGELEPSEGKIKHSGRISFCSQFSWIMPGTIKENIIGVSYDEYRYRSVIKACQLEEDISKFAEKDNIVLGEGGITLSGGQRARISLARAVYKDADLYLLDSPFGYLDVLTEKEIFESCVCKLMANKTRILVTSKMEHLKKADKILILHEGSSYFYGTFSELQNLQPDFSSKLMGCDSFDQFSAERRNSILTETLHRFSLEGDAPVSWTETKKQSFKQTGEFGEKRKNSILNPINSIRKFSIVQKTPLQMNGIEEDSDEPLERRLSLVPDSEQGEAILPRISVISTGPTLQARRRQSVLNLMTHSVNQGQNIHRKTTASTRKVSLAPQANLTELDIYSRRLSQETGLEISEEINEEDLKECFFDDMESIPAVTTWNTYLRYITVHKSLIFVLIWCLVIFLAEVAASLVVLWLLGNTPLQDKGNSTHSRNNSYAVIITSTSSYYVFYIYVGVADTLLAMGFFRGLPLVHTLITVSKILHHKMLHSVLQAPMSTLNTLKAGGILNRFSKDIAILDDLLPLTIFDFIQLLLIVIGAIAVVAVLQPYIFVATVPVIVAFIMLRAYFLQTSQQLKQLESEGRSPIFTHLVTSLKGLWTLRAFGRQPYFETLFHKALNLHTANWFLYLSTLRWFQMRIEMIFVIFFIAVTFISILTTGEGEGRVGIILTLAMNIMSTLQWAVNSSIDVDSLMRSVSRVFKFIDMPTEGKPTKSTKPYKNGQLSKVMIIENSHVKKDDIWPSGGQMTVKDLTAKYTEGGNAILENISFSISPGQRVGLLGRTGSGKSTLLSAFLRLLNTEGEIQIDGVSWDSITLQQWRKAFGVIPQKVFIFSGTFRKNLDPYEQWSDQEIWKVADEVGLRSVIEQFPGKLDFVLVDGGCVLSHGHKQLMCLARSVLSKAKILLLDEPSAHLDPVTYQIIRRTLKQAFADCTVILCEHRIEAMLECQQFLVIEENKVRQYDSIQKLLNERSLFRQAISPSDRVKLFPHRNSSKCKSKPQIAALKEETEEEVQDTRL
T1 sequence (P13569 with tags, fused parts or gaps DEL508-508): as above

| MTECC24 CFHBEC- Amax % (delF508-CFTR) | EC50 (delF508-CFTR) | EC50 [1] | DelF508-CFTR-HRP Amax % [1] | Emax [1] | SMILES |
| --- | --- | --- | --- | --- | --- |
| 70.6% | 38.5 nM | 2060 nM |  |  | Cc1ccc(F)cc1-c1nc(NS(=O)(=O)c2cccc(N3CCC[C@@H](C(=O)O)C3)n2)ccc1C(F)(F)F [Example 357, (3R)-1-(6-{[6-(5-fluoro-2-methylphenyl)-5-(trifluoromethyl)pyridin-2-yl]sulfamoyl}pyridin-2-yl)piperidine-3-carboxylic Acid] |
| 70.1% | 7.49 nM | 1510 nM | 553.8% |  | Cc1ccccc1-c1nc(NS(=O)(=O)c2cccc(N[C@H]3C[C@@](C)(C(=O)O)C3)n2)ccc1C(F)(F)F [Example 356, (1s,3s)-1-methyl-3-((6-(N-(6-(o-tolyl)-5-(trifluoromethyl)pyridin-2-yl)sulfamoyl)pyridin-2-yl)amino)cyclobutanecarboxylic Acid] |
| 66.2% | 0.152 nM | 671 nM |  |  | CC1(C(=O)O)CCCN(c2cccc(S(=O)(=O)Nc3ccc(C(F)(F)F)c(-c4ccccc4C4CCC4)n3)n2)C1 (centres unmarked) [Example 368, 1-(6-(N-(6-(2-cyclobutylphenyl)-5-(trifluoromethyl)pyridin-2-yl)sulfamoyl)pyridin-2-yl)-3-methylpiperidine-3-carboxylic Acid] |
| 35.7% | 39.9 nM | 3860 nM |  | 91.5% | Cc1ccc(OC(F)(F)F)cc1-c1nc(NS(=O)(=O)c2cccc(N)n2)ccc1Cl [Example 89, 6-amino-N-(5-chloro-6-(2-methyl-5-(trifluoromethoxy)phenyl)pyridin-2-yl)pyridine-2-sulfonamide] |
| 76.6% | 93.5 nM | 4190 nM |  | 230% | COc1ccc(Cl)c(-c2nc(NS(=O)(=O)c3cccc(N4CCNCC4)n3)ccc2Cl)c1 [Example 158, N-(5-chloro-6-(2-chloro-5-methoxyphenyl)pyridin-2-yl)-6-(piperazin-1-yl)pyridine-2-sulfonamide hydrochloride] |
| 48.7% | 77.6 nM | 3170 nM |  | 318% | Cc1ccc(F)cc1-c1nc(NS(=O)(=O)c2ccnc(N3CCOC[C@H]3C)c2)ccc1Cl [Example 318, (R)—N-(5-chloro-6-(5-fluoro-2-methylphenyl)pyridin-2-yl)-2-(3-methylmorpholino)pyridine-4-sulfonamide] |
| 78.0% | 19.4 nM | 2270 nM |  | 503% | Cc1ccccc1-c1nc(NS(=O)(=O)c2cccc(N3CC(C)(O)C3)n2)ccc1Br [Example 207, N-(5-bromo-6-(o-tolyl)pyridin-2-yl)-6-(3-hydroxy-3-methylazetidin-1-yl)pyridine-2-sulfonamide] |
| 80.9% | 23.3 nM | 2980 nM |  | 298% | Cc1ccccc1-c1nc(NS(=O)(=O)c2cccc(N3C[C@@H]4C[C@H]3CN4)n2)ccc1C(F)(F)F [Example 203, 6-((1S,4S)-2,5-diazabicyclo[2.2.1]heptan-2-yl)-N-(6-(o-tolyl)-5-(trifluoromethyl)pyridin-2-yl)pyridine-2-sulfonamide hydrochloride] |
| 79.7% | 232 nM | 2810 nM |  | 447% | Cc1ccc(F)cc1-c1nc(NS(=O)(=O)c2cccc(N3CCN[C@@H](C)C3)n2)ccc1C(F)(F)F [Example 177, (S)—N-(6-(5-fluoro-2-methylphenyl)-5-(trifluoromethyl)pyridin-2-yl)-6-(3-methylpiperazin-1-yl)pyridine-2-sulfonamide Hydrochloride] |
| 60.7% | 207 nM | 3750 nM |  | 233% | Cc1c(C#N)cccc1-c1nc(NS(=O)(=O)c2cccc(N3CC(C)(O)C3)n2)ccc1C(F)(F)F [Example 308, N-(6-(3-cyano-2-methylphenyl)-5-(trifluoromethyl)pyridin-2-yl)-6-(3-hydroxy-3-methylazetidin-1-yl)pyridine-2-sulfonamide] |
| 66.8% | 1.8 nM | 1290 nM |  | 592% | Cc1cccc(C)c1-c1cc(C(F)(F)F)cc(NS(=O)(=O)c2cccc(N3CC(O)C3)n2)n1 [Example 205, N-(6-(2,6-dimethylphenyl)-4-(trifluoromethyl)pyridin-2-yl)-6-(3-hydroxyazetidin-1-yl)pyridine-2-sulfonamide] |
| 73.9% | 67 nM | 3650 nM |  | 500% | Cc1cccc(C)c1-c1nc(NS(=O)(=O)c2cccc(N3CCN(C)CC3=O)n2)ccc1Cl [Example 197, N-(5-chloro-6-(2,6-dimethylphenyl)pyridin-2-yl)-6-(4-methyl-2-oxopiperazin-1-yl)pyridine-2-sulfonamide] |
| 99.7% | 107 nM | 870 nM |  | 492% | CCCC1(C(=O)O)CCN(c2cccc(S(=O)(=O)Nc3ccc(C(F)(F)F)c(-c4ccccc4CC)n3)n2)CC1 [Example 351, 1-(6-{[6-(2-ethylphenyl)-5-(trifluoromethyl)pyridin-2-yl]sulfamoyl}pyridin-2-yl)-4-propylpiperidine-4-carboxylic Acid] |
| 81.2% | 14 nM | 2290 nM |  | 628% | Cc1ccc(F)cc1-c1nc(NS(=O)(=O)c2cccc(N3CCC(C)(C(=O)O)CC3)n2)ccc1C(F)(F)F [Example 262, 1-(6-{[6-(5-fluoro-2-methylphenyl)-5-(trifluoromethyl)pyridin-2-yl]sulfamoyl}pyridin-2-yl)-4-methylpiperidine-4-carboxylic Acid] |
| 65.3% | 86.1 nM | 2150 nM |  | 197% | CC1(C(=O)O)CCN(c2cccc(S(=O)(=O)Nc3ccc(C(F)(F)F)c(-c4ccccc4N4CCOCC4)n3)n2)CC1 [Example 343, 4-methyl-1-(6-(N-(6-(2-morpholinophenyl)-5-(trifluoromethyl)pyridin-2-yl)sulfamoyl)pyridin-2-yl)piperidine-4-carboxylic Acid] |
| 93.1% | 1.17 nM | 273 nM |  | 367% | C[C@]1(C(=O)O)CCCN(c2cccc(S(=O)(=O)Nc3ccc(C(F)(F)F)c(-c4ccccc4C4CCC4)n3)n2)C1 [Example 373, (S)-1-(6-(N-(6-(2-cyclobutylphenyl)-5-(trifluoromethyl)pyridin-2-yl)sulfamoyl)pyridin-2-yl)-3-methylpiperidine-3-carboxylic Acid] |
| 69.5% | 239 nM | 3460 nM |  | 395% | COc1ccc(Cl)c(-c2nc(NS(=O)(=O)c3cccc(N4CCNCC4)n3)ccc2C(F)(F)F)c1 [Example 154, N-(6-(2-chloro-5-methoxyphenyl)-5-(trifluoromethyl)pyridin-2-yl)-6-(piperazin-1-yl)pyridine-2-sulfonamide hydrochloride] |
| 59.4% | 11 nM | 1830 nM |  | 744% | Cc1cccc(C)c1-c1nc(NS(=O)(=O)c2cccc(N3CCC(C)(C(=O)O)CC3)n2)ccc1Cl [Example 250, 1-(6-(N-(5-chloro-6-(2,6-dimethylphenyl)pyridin-2-yl)sulfamoyl)pyridin-2-yl)-4-methylpiperidine-4-carboxylic Acid] |
| 52.6% | 222 nM | 2610 nM |  | 310% | Cc1ccc(F)cc1-c1nc(NS(=O)(=O)c2ccnc(N3CC(O)C3)c2)ccc1Cl [Example 322, N-(5-chloro-6-(5-fluoro-2-methylphenyl)pyridin-2-yl)-2-(3-hydroxyazetidin-1-yl)pyridine-4-sulfonamide] |
| 71.4% | 46.6 nM | 1440 nM |  | 616% | Cc1cccc(C)c1-c1nc(NS(=O)(=O)c2cccc(O[C@@H]3COC[C@@H]3O)n2)ccc1Cl (racemic) [Example 290, rac-N-[5-chloro-6-(2,6-dimethylphenyl)pyridin-2-yl]-6-{[(3R,4S)-4-hydroxyoxolan-3-yl]oxy}pyridine-2-sulfonamide] |
| 69.5% | 5.1 nM | 2090 nM |  | 510% | Nc1cccc(S(=O)(=O)Nc2ccc(C(F)(F)F)c(-c3ccccc3Cl)n2)n1 [Example 17, 6-amino-N-(6-(2-chlorophenyl)-5-(trifluoromethyl)pyridin-2-yl)pyridine-2-sulfonamide] |
| 64.2% | 134 nM | 4240 nM |  | 163% | Nc1cccc(S(=O)(=O)Nc2ccc(Cl)c(-c3cccc(C(F)(F)F)c3)n2)n1 [Example 73, 6-amino-N-(5-chloro-6-(3-(trifluoromethyl)phenyl)pyridin-2-yl)pyridine-2-sulfonamide] |
